Target: Carbonic anhydrase 9 (Homo sapiens, UniProt Q16790)

A Ki of 23 nM was found for `COC(=O)[C@H]1O[C@@H](On2cc(CNC(=O)c3ccc(S(N)(=O)=O)cc3)nn2)[C@H](O)[C@@H](O)[C@@H]1O` in this work.

A Ki of 76 nM was found for `CC(=O)OC[C@H]1O[C@@H](On2cc(CNC(=O)c3ccc(S(N)(=O)=O)cc3)nn2)[C@H](OC(C)=O)[C@@H](OC(C)=O)[C@@H]1OC(C)=O` in this work.
